Measured values published in patent US10004701B2, “Methods and compositions for treating infection” (UNIVERSITY OF ROCHESTER, priority 2012, dated 2018).
Where a name gives a salt, the structure may show the parent alone. Read-outs that look alike come from different tables or passages of the source.

Key:
Test in all cases: AK assay 384-well format, Prestwick library screening
[1] = system: E. faecium; assay type: cell-based, Enterococcus faecium; conditions: 50 μM final drug concentration; for fold induction at 50 µM: Enterococcus faecium, 3 h
[2] = system: E. coli; assay type: cell-based, Escherichia coli; conditions: for fold induction at 50 µM: Escherichia coli, 3 h
[3] = system: E. cloacae; assay type: cell-based, Enterobacter cloacae; conditions: 50 μM final drug concentration; for fold induction at 50 µM: Enterobacter cloacae, 3 h
[4] = system: P. aeruginosa; assay type: cell-based, Pseudomonas aeruginosa; conditions: 50 μM final drug concentration; for fold induction at 50 µM: Pseudomonas aeruginosa, 3 h
[5] = system: A. baumannii strain 98-37-09; assay type: cell-based, Acinetobacter baumannii; conditions: 50 μM final drug concentration; for fold induction at 50 µM: Acinetobacter baumannii, 983709, 3 h
[6] = system: S. aureus strain USA300-0114; assay type: cell-based, Staphylococcus aureus; conditions: 50 μM final drug concentration; for fold induction at 50 µM: Staphylococcus aureus, USA300, 3 h
[7] = system: K. pneumoniae; assay type: cell-based, Klebsiella pneumoniae; conditions: 50 μM final drug concentration; for fold induction at 50 µM: Klebsiella pneumoniae, 3 h
[8] = planktonic, cutoff for positive 3-fold increase

## COc1ccc(CC2c3cc(OC)c(OC)cc3CCN2C)cc1OC (racemic) [Laudanosine (R,S)]
[1]; planktonic E. faecium, […]
  AK-based Prestwick Library Screening Results, E. faecium (increase in extracellular AK activity): 0.9
[2]; planktonic E. coli, 50 μM final drug concentration, […]
  AK-based Prestwick Library Screening Results, E. coli (increase in extracellular AK activity): 1.0
[3]; planktonic E. cloacae, […]
  AK-based Prestwick Library Screening Results, E. cloacae (increase in extracellular AK activity): 1.3
[4]; planktonic P. aeruginosa, […]
  AK-based Prestwick Library Screening Results, P. aeruginosa (increase in extracellular AK activity): 0.9
[5]; planktonic A. baumannii, […]
  AK-based Prestwick Library Screening Results, A. baumannii (increase in extracellular AK activity): 0.9
[6]; planktonic S. aureus, […]
  AK-based Prestwick Library Screening Results, S. aureus (increase in extracellular AK activity): 0.7
[7]; planktonic K. pneumoniae, […]
  AK-based Prestwick Library Screening Results, K. pneumoniae (increase in extracellular AK activity): 0.7

## O=C(O)[C@H](O)[C@@H](O)[C@H](O[C@@H]1O[C@H](CO)[C@H](O)[C@H](O)[C@H]1O)[C@H](O)CO [Lactobionic acid]
[1]; [8]
  AK-based Prestwick Library Screening Results, E. faecium (fold increase in extracellular AK activity): 1.0
[2]; 50 μM final drug concentration, planktonic, cutoff for positive 3-fold increase
  AK-based Prestwick Library Screening Results, E. coli (fold increase in extracellular AK activity): 1.0
[3]; [8]
  AK-based Prestwick Library Screening Results, E. cloacae (fold increase in extracellular AK activity): 1.2
[4]; [8]
  AK-based Prestwick Library Screening Results, P. aeruginosa (fold increase in extracellular AK activity): 1.0
[5]; [8]
  AK-based Prestwick Library Screening Results, A. baumannii (fold increase in extracellular AK activity): 1.1
[6]; [8]
  AK-based Prestwick Library Screening Results, S. aureus (fold increase in extracellular AK activity): 0.8
[7]; [8]
  AK-based Prestwick Library Screening Results, K. pneumoniae (fold increase in extracellular AK activity): 0.9

## NC(=O)c1ncn([C@@H]2O[C@H](CO)[C@@H](O)[C@H]2O)n1 [Ribavirin]
[1]; planktonic E. faecium, positive cutoff 3-fold increase, read-out: AK-based Prestwick library screening result, E. faecium (fold increase in extracellular AK activity)
  fold induction at 50 µM: 0.9
[2]; planktonic E. coli, 50 μM final drug concentration, positive cutoff 3-fold increase, read-out: AK-based Prestwick library screening result, E. coli (fold increase in extracellular AK activity)
  fold induction at 50 µM: 0.8
[3]; planktonic E. cloacae, positive cutoff 3-fold increase, read-out: AK-based Prestwick library screening result, E. cloacae (fold increase in extracellular AK activity)
  fold induction at 50 µM: 1.2
[4]; planktonic P. aeruginosa, positive cutoff 3-fold increase, read-out: AK-based Prestwick library screening result, P. aeruginosa (fold increase in extracellular AK activity)
  fold induction at 50 µM: 1.1
[5]; planktonic A. baumannii, positive cutoff 3-fold increase, read-out: AK-based Prestwick library screening result, A. baumannii (fold increase in extracellular AK activity)
  fold induction at 50 µM: 0.9
[6]; planktonic S. aureus, positive cutoff 3-fold increase, read-out: AK-based Prestwick library screening result, S. aureus (fold increase in extracellular AK activity)
  fold induction at 50 µM: 0.7
[7]; planktonic K. pneumoniae, positive cutoff 3-fold increase, read-out: AK-based Prestwick library screening result, K. pneumoniae (fold increase in extracellular AK activity)
  fold induction at 50 µM: 0.7

## CCC1(c2ccccc2)C(=O)NCNC1=O [Primidone]
[1]; cutoff for positive-scoring molecules 3-fold increase, read-out: AK-based Prestwick Library Screening Results, E. faecium (fold increase in extracellular AK activity)
  fold induction at 50 µM: 0.9
[2]; read-out: AK-based Prestwick Library Screening Results, E. coli (fold increase in extracellular AK activity)
  fold induction at 50 µM: 1
[3]; cutoff for positive-scoring molecules 3-fold increase, read-out: AK-based Prestwick Library Screening Results, E. cloacae (fold increase in extracellular AK activity)
  fold induction at 50 µM: 1.8
[4]; cutoff for positive-scoring molecules 3-fold increase, read-out: AK-based Prestwick Library Screening Results, P. aeruginosa (fold increase in extracellular AK activity)
  fold induction at 50 µM: 1.2
[5]; cutoff for positive-scoring molecules 3-fold increase, read-out: AK-based Prestwick Library Screening Results, A. baumannii (fold increase in extracellular AK activity)
  fold induction at 50 µM: 1.2
[6]; cutoff for positive-scoring molecules 3-fold increase, read-out: AK-based Prestwick Library Screening Results, S. aureus (fold increase in extracellular AK activity)
  fold induction at 50 µM: 1.3
[7]; cutoff for positive-scoring molecules 3-fold increase, read-out: AK-based Prestwick Library Screening Results, K. pneumoniae (fold increase in extracellular AK activity)
  fold induction at 50 µM: 0.9

## CCN1C[C@]2(C)CC[C@H](OC)[C@@]34C1[C@]1(OCO[C@@]15C[C@H](OC)[C@H]1C[C@]3(O)[C@@H]5[C@H]1OC)[C@@H](OC(C)=O)[C@H]24 [Deltaline]
[1]; planktonic, […], read-out: AK-based Prestwick Library Screening Results, E. faecium (fold increase in extracellular AK activity)
  fold induction at 50 µM: 0.9
[2]; 50 μM final drug concentration, planktonic, […], read-out: AK-based Prestwick Library Screening Results, E. coli (fold increase in extracellular AK activity)
  fold induction at 50 µM: 0.9
[3]; planktonic, […], read-out: AK-based Prestwick Library Screening Results, E. cloacae (fold increase in extracellular AK activity)
  fold induction at 50 µM: 1.1
[4]; planktonic, […], read-out: AK-based Prestwick Library Screening Results, P. aeruginosa (fold increase in extracellular AK activity)
  fold induction at 50 µM: 0.8
[5]; planktonic, […], read-out: AK-based Prestwick Library Screening Results, A. baumannii (fold increase in extracellular AK activity)
  fold induction at 50 µM: 0.8
[6]; planktonic, […], read-out: AK-based Prestwick Library Screening Results, S. aureus (fold increase in extracellular AK activity)
  fold induction at 50 µM: 0.8
[7]; planktonic, […], read-out: AK-based Prestwick Library Screening Results, K. pneumoniae (fold increase in extracellular AK activity)
  fold induction at 50 µM: 0.7

## CN1C[C@H](CNC(=O)OCc2ccccc2)C[C@@H]2c3cccc4c3c(cn4C)C[C@H]21 [Metergoline]
[1]; planktonic E. faecium, cutoff for positive-scoring molecules 3-fold increase, read-out: AK-based Prestwick Library Screening Results, E. faecium (increase in extracellular AK activity)
  fold induction at 50 µM: 1
[2]; planktonic E. coli, 50 μM final drug concentration, cutoff for positive-scoring molecules 3-fold increase, read-out: AK-based Prestwick Library Screening Results, E. coli (increase in extracellular AK activity)
  fold induction at 50 µM: 1.2
[3]; planktonic E. cloacae, cutoff for positive-scoring molecules 3-fold increase, read-out: AK-based Prestwick Library Screening Results, E. cloacae (increase in extracellular AK activity)
  fold induction at 50 µM: 1.3
[4]; planktonic P. aeruginosa, cutoff for positive-scoring molecules 3-fold increase, read-out: AK-based Prestwick Library Screening Results, P. aeruginosa (increase in extracellular AK activity)
  fold induction at 50 µM: 1.1
[5]; planktonic A. baumannii, cutoff for positive-scoring molecules 3-fold increase, read-out: AK-based Prestwick Library Screening Results, A. baumannii (increase in extracellular AK activity)
  fold induction at 50 µM: 1.3
[6]; planktonic S. aureus, cutoff for positive-scoring molecules 3-fold increase, read-out: AK-based Prestwick Library Screening Results, S. aureus (increase in extracellular AK activity)
  fold induction at 50 µM: 1.1
[7]; planktonic K. pneumoniae, cutoff for positive-scoring molecules 3-fold increase, read-out: AK-based Prestwick Library Screening Results, K. pneumoniae (increase in extracellular AK activity)
  fold induction at 50 µM: 1

## CCN(CC)C(=O)N1CCN(C)CC1 [Diethylcarbamazine citrate]
[1]; planktonic E. faecium, 384-well, cutoff for positive-scoring molecules 3-fold increase, read-out: AK-based Prestwick Library Screening Results: E. faecium (increase in extracellular AK activity)
  fold induction at 50 µM: 1.2
[2]; planktonic E. coli, 50 μM final drug concentration, 384-well, cutoff for positive-scoring molecules 3-fold increase, read-out: AK-based Prestwick Library Screening Results: E. coli (increase in extracellular AK activity)
  fold induction at 50 µM: 1.3
[3]; planktonic E. cloacae, 384-well, cutoff for positive-scoring molecules 3-fold increase, read-out: AK-based Prestwick Library Screening Results: E. cloacae (increase in extracellular AK activity)
  fold induction at 50 µM: 1.7
[4]; planktonic P. aeruginosa, 384-well, cutoff for positive-scoring molecules 3-fold increase, read-out: AK-based Prestwick Library Screening Results: P. aeruginosa (increase in extracellular AK activity)
  fold induction at 50 µM: 1.1
[5]; planktonic A. baumannii, 384-well, cutoff for positive-scoring molecules 3-fold increase, read-out: AK-based Prestwick Library Screening Results: A. baumannii (increase in extracellular AK activity)
  fold induction at 50 µM: 1.1
[6]; planktonic S. aureus, 384-well, cutoff for positive-scoring molecules 3-fold increase, read-out: AK-based Prestwick Library Screening Results: S. aureus (increase in extracellular AK activity)
  fold induction at 50 µM: 1.1
[7]; planktonic K. pneumoniae, 384-well, cutoff for positive-scoring molecules 3-fold increase, read-out: AK-based Prestwick Library Screening Results: K. pneumoniae (increase in extracellular AK activity)
  fold induction at 50 µM: 0.9

## O=c1cc(-c2ccccc2)oc2cc(O)cc(O)c12 [Chrysin]
[1]; planktonic, cutoff for positive-scoring molecules 3-fold increase, read-out: AK-based Prestwick Library Screening Results, E. faecium (fold increase in extracellular AK activity)
  fold induction at 50 µM: 0.3
[2]; 50 μM final drug concentration, planktonic, cutoff for positive-scoring molecules 3-fold increase, read-out: AK-based Prestwick Library Screening Results, E. coli (fold increase in extracellular AK activity)
  fold induction at 50 µM: 0.2
[3]; planktonic, cutoff for positive-scoring molecules 3-fold increase, read-out: AK-based Prestwick Library Screening Results, E. cloacae (fold increase in extracellular AK activity)
  fold induction at 50 µM: 0.6
[4]; planktonic, cutoff for positive-scoring molecules 3-fold increase, read-out: AK-based Prestwick Library Screening Results, P. aeruginosa (fold increase in extracellular AK activity)
  fold induction at 50 µM: 0.1
[5]; planktonic, cutoff for positive-scoring molecules 3-fold increase, read-out: AK-based Prestwick Library Screening Results, A. baumannii (fold increase in extracellular AK activity)
  fold induction at 50 µM: 0.2
[6]; planktonic, cutoff for positive-scoring molecules 3-fold increase, read-out: AK-based Prestwick Library Screening Results, S. aureus (fold increase in extracellular AK activity)
  fold induction at 50 µM: 0.2
[7]; planktonic, cutoff for positive-scoring molecules 3-fold increase, read-out: AK-based Prestwick Library Screening Results, K. pneumoniae (fold increase in extracellular AK activity)
  fold induction at 50 µM: 0.2

## Cl.O=c1[nH]oc2c1CCNC2 [THIP Hydrochloride]
[1]; […]
  AK-based Prestwick Library Screening Results, E. faecium (fold increase in extracellular AK activity): 1.0
[2]; 50 μM final drug concentration, […]
  AK-based Prestwick Library Screening Results, E. coli (fold increase in extracellular AK activity): 0.6
[3]; […]
  AK-based Prestwick Library Screening Results, E. cloacae (fold increase in extracellular AK activity): 0.8
[4]; […]
  AK-based Prestwick Library Screening Results, P. aeruginosa (fold increase in extracellular AK activity): 0.6
[5]; […]
  AK-based Prestwick Library Screening Results, A. baumannii (fold increase in extracellular AK activity): 0.6
[6]; […]
  AK-based Prestwick Library Screening Results, S. aureus (fold increase in extracellular AK activity): 0.6
[7]; […]
  AK-based Prestwick Library Screening Results, K. pneumoniae (fold increase in extracellular AK activity): 0.6
